Common to all, as to assay: Bliss interaction score (quartile over a dose matrix) (fitness difference); higher = more antagonism (negative = synergy)
One test concerns S. aureus DSM 20231. Summed up: (§1)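 OD595 was read at entry into stationary phase and expressed relative to the robust mean of the no-drug wells on the same plate, capped at 1. The resulting ratio is the fitness value. The Bliss score, observed fitness minus product-based expected fitness with single-drug fitness inferred from combinations, is summarised by quartiles over technical, biological and donor/recipient replicates.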

The next test deals with S. aureus Newman. In a few lines: as §1
For the next test, the system named is B. subtilis 168. Summed up: as §1
A further test deals with S. pneumoniae D39V. Summed up: as §1

Bliss interaction score data for 17 compounds are collected here from the supplement of paper PMC10627819.
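Also: first quartile when negative (synergy) and third quartile when positive (antagonism).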

As for `CCC[C@@H]1C[C@@H](C(=O)N[C@@H]([C@H]2O[C@H](SC)[C@H](O)[C@@H](O)[C@H]2O)[C@H](C)Cl)N(C)C1` [Clindamycin] + Oc1cc(Cl)ccc1Oc1ccc(Cl)cc1Cl [Triclosan], the Bliss interaction score in the test with S. aureus DSM 20231 is -0.0305; in the test on S. aureus Newman it was 0.0225; in the test with B. subtilis 168 it was 0.065; with S. pneumoniae D39V, -0.101.
On the same counts, the results for `CC(=O)OC[C@H]1O[C@@H]([S-])[C@H](OC(C)=O)[C@@H](OC(C)=O)[C@@H]1OC(C)=O.CCP(CC)CC.[Au+]` [Auranofin] + C[C@@H](O)[C@H]1C(=O)N2C(C(=O)O)=C(SCCNC=N)C[C@H]12 [Imipenem] are -0.0179, 0.162, -0.0439 and -0.0587.
Take `N[C@@H]1CONC1=O` [CycloserineD] + Clc1ccc(COC(Cn2ccnc2)c2ccc(Cl)cc2Cl)c(Cl)c1 [Miconazole]: the Bliss interaction score in the test with S. aureus DSM 20231 is 0.0763; in the test with S. aureus Newman, -0.0328; with B. subtilis 168, 0.0883; with S. pneumoniae D39V, -0.0729.
Take `CC(=O)O[C@H]1C[C@@]2(C)[C@@H](C[C@@H](O)[C@H]3[C@@]4(C)CC[C@@H](O)[C@@H](C)[C@@H]4CC[C@@]32C)/C1=C(\CCC=C(C)C)C(=O)O` [Fusidic acid] + CO[C@H]1/C=C/O[C@@]2(C)Oc3c(C)c(O)c4c(O)c(c(/C=N/N5CCN(C)CC5)c(O)c4c3C2=O)NC(=O)/C(C)=C\C=C\[C@H](C)[C@H](O)[C@@H](C)[C@@H](O)[C@@H](C)[C@H](OC(C)=O)[C@@H]1C [Rifampicin]: the Bliss interaction score amounted to 0.0497 in the test on S. aureus DSM 20231, 0.0314 in the test with S. aureus Newman, 0.0723 in the test on B. subtilis 168 and 0.0781 in the test on S. pneumoniae D39V.
Consider `CC(=O)O[C@H]1C[C@@]2(C)[C@@H](C[C@@H](O)[C@H]3[C@@]4(C)CC[C@@H](O)[C@@H](C)[C@@H]4CC[C@@]32C)/C1=C(\CCC=C(C)C)C(=O)O` [Fusidic acid] + Oc1cc(Cl)ccc1Oc1ccc(Cl)cc1Cl [Triclosan], for which the Bliss interaction score with S. aureus DSM 20231 was -0.0259; with S. aureus Newman it was 0.0305; in the test on B. subtilis 168, 0.0422; in the test with S. pneumoniae D39V, 0.124.
On the same counts, the results for `O=C1CN(/N=C/c2ccc([N+](=O)[O-])o2)C(=O)N1` [Nitrofurantoin] + Oc1cc(Cl)ccc1Oc1ccc(Cl)cc1Cl [Triclosan] are -0.014, 0.0328, -0.039 and 0.0809.
`O=C(N[C@H](CO)[C@H](O)c1ccc([N+](=O)[O-])cc1)C(Cl)Cl` [Chloramphenicol] + CC(=O)O[C@H]1C[C@@]2(C)[C@@H](C[C@@H](O)[C@H]3[C@@]4(C)CC[C@@H](O)[C@@H](C)[C@@H]4CC[C@@]32C)/C1=C(\CCC=C(C)C)C(=O)O [Fusidic acid]: the Bliss interaction score was 0.0319 with S. aureus DSM 20231, -0.0559 with S. aureus Newman, 0.074 in the test with B. subtilis 168 and -0.103 in the test with S. pneumoniae D39V.
In the case of `N[C@@H]1CONC1=O` [CycloserineD] + CN(C)c1cc(NC(=O)CNC(C)(C)C)c(O)c2c1C[C@H]1C[C@H]3[C@H](N(C)C)C(O)=C(C(N)=O)C(=O)[C@@]3(O)C(O)=C1C2=O [Tigecycline], the Bliss interaction score in the test with S. aureus DSM 20231 was 0.0966; in the test on S. aureus Newman, 0.0356; with B. subtilis 168, -0.0502; in the test with S. pneumoniae D39V it was -0.0514.
Take `N[C@@H]1CONC1=O` [CycloserineD] + CN[C@@H]1[C@H](O[C@H]2[C@H](O[C@H]3[C@H](O)[C@@H](O)[C@H](N=C(N)N)[C@@H](O)[C@@H]3N=C(N)N)O[C@@H](C)[C@]2(O)C=O)O[C@@H](CO)[C@H](O)[C@H]1O [Streptomycin]: the Bliss interaction score with S. aureus DSM 20231 was -0.136; in the test on S. aureus Newman, 0.0653; with B. subtilis 168, -0.0511; in the test with S. pneumoniae D39V, -0.108.
In the case of `C[C@@H](O)[C@H]1C(=O)N2C(C(=O)O)=C(SCCNC=N)C[C@H]12` [Imipenem] + CC1(C)S[C@@H]2[C@H](NC(=O)Cc3ccccc3)C(=O)N2[C@H]1C(=O)O [PenicillinG], the Bliss interaction score in the test with S. aureus DSM 20231 was -0.0614; in the test with S. aureus Newman, -0.198; in the test with B. subtilis 168, 0.0587; with S. pneumoniae D39V, -0.0999.
On the same counts, the results for `CC(=O)OC[C@H]1O[C@@H]([S-])[C@H](OC(C)=O)[C@@H](OC(C)=O)[C@@H]1OC(C)=O.CCP(CC)CC.[Au+]` [Auranofin] + CN[C@@H]1[C@H](O[C@H]2[C@H](O[C@H]3[C@H](O)[C@@H](O)[C@H](N=C(N)N)[C@@H](O)[C@@H]3N=C(N)N)O[C@@H](C)[C@]2(O)C=O)O[C@@H](CO)[C@H](O)[C@H]1O [Streptomycin] are -0.0362, -0.0862, 0.0215 and -0.163.
`CC(=O)O[C@H]1C[C@@]2(C)[C@@H](C[C@@H](O)[C@H]3[C@@]4(C)CC[C@@H](O)[C@@H](C)[C@@H]4CC[C@@]32C)/C1=C(\CCC=C(C)C)C(=O)O` [Fusidic acid] + CN[C@@H]1[C@H](O)[C@H](NC)[C@H]2O[C@@]3(O)C(=O)C[C@@H](C)O[C@H]3O[C@@H]2[C@H]1O [Spectinomycin]: the Bliss interaction score in the test on S. aureus DSM 20231 is 0.027; in the test with S. aureus Newman, -0.0448; with B. subtilis 168, 0.0642; with S. pneumoniae D39V it was -0.0789.
Regarding `O=C1CN(/N=C/c2ccc([N+](=O)[O-])o2)C(=O)N1` [Nitrofurantoin] + CO[C@@H]1[C@@H](OC(N)=O)[C@@H](O)[C@H](Oc2ccc3c(O)c(NC(=O)c4ccc(O)c(CC=C(C)C)c4)c(=O)oc3c2C)OC1(C)C [Novobiocin], the Bliss interaction score in the test with S. aureus DSM 20231 was 0.0482; in the test on S. aureus Newman, 0.0827; with B. subtilis 168, 0.0731; in the test with S. pneumoniae D39V, 0.0513.
`CC[C@H]1OC(=O)[C@H](C)[C@@H](O[C@H]2C[C@@](C)(OC)[C@@H](O)[C@H](C)O2)[C@H](C)[C@@H](O[C@@H]2O[C@H](C)C[C@H](N(C)C)[C@H]2O)[C@](C)(OC)C[C@@H](C)C(=O)[C@H](C)[C@@H](O)[C@]1(C)O` [Clarithromycin] + COc1cc(Cc2cnc(N)nc2N)cc(OC)c1OC [Trimethoprim]: the Bliss interaction score in the test with S. aureus DSM 20231 was 0.0723; in the test on S. aureus Newman it was 0.0667; in the test on B. subtilis 168, -0.193; in the test with S. pneumoniae D39V, -0.0331.
On the same counts, the results for `CC(=O)OC[C@H]1O[C@@H]([S-])[C@H](OC(C)=O)[C@@H](OC(C)=O)[C@@H]1OC(C)=O.CCP(CC)CC.[Au+]` [Auranofin] + COc1c(N2C[C@@H]3CCCN[C@@H]3C2)c(F)cc2c(=O)c(C(=O)O)cn(C3CC3)c12 [Moxifloxacin] are 0.0832, 0.105, 0.031 and -0.051.
The corresponding values for `COc1c(N2C[C@@H]3CCCN[C@@H]3C2)c(F)cc2c(=O)c(C(=O)O)cn(C3CC3)c12` [Moxifloxacin] + CC[C@H]1OC(=O)[C@H](C)C(=O)[C@H](C)[C@@H](O[C@@H]2O[C@H](C)C[C@H](N(C)C)[C@H]2O)[C@](C)(OC)C[C@@H](C)C(=O)[C@H](C)[C@H]2N(CCCCn3cnc(-c4cccnc4)c3)C(=O)O[C@]12C [Telithromycin] are 0.0615, 0.0472, 0.0281 and 0.0543.
For the compound `CC(=O)OC[C@H]1O[C@@H]([S-])[C@H](OC(C)=O)[C@@H](OC(C)=O)[C@@H]1OC(C)=O.CCP(CC)CC.[Au+]` [Auranofin] + CC[C@H]1OC(=O)[C@H](C)[C@@H](O[C@H]2C[C@@](C)(OC)[C@@H](O)[C@H](C)O2)[C@H](C)[C@@H](O[C@@H]2O[C@H](C)C[C@H](N(C)C)[C@H]2O)[C@](C)(O)C[C@@H](C)C(=O)[C@H](C)[C@@H](O)[C@]1(C)O [Erythromycin], the Bliss interaction score with S. aureus DSM 20231 was 0.0169; in the test on S. aureus Newman, 0.0459; in the test with B. subtilis 168, 0.0564; in the test on S. pneumoniae D39V, 0.0643.
